Data reported in patent US11400131B2, “Multi-peptide composition” (King's College London, priority 2015, dated 2022).

Columns and labels:
[1] = test system: peripheral blood mononuclear cells; assay: IFN-γ ELISPOT response of Type 1 diabetes patients to nested IA-2 peptides; format: cell-based, human; conditions: nested peptides compared with parental sequences; response positive when SI ≥3; FIG. 1
Procedure: Detection of interferon (IFN)-γ by CD4^+ T cells in response to peptide stimulation was carried out using an enzyme-linked immunospot (ELISPOT) assay that has significant discriminative ability for type 1 diabetes in blinded proficiency testing, as previously described (Arif, S. et al. J Clin Invest 2004; 113: 451-463 and Herold, K. C. et al. Diabetes 2009; 58: 2588-2595). Data are expressed as the mean number of spots per triplicate and compared with the mean spot number in the presence of diluent alone (stimulation index; SI). A response is considered positive when the SI is ≥3 using cut-offs determined using receiver-operator characteristic plots as previously described (Arif, S. et al. J Clin Invest 2004; 113: 451-463).
The results are shown for 3 parental sequences (cross-hatched), and these are compared with shorter nested sequence peptides. Responses represent IFN-γ production by peripheral blood mononuclear cells cultured with each peptide, as detected using an enzyme-linked immunospot assay.

proinsulin = assay: Serum proinsulin specific IgG after mono-/multi-PI treatment; format: in vivo, HLA-DR4-Tg mice; conditions: 4 weekly intradermal injections of individual peptide; FIG. 4E-F
Procedure: In brief, tolerance to proinsulin was breached in mice by subcutaneous immunisation with 100 μg proinsulin protein emulsified in CFA and treatment with intraperitoneal pertussis toxin immediately and 1 day after immunisation. Mice then received 4 weekly intradermal treatments of 10 μg control-PI or proinsulin mono/multi-PI (C13-32 (SEQ ID NO: 4); C19-A3 (SEQ ID NO: 5); C22-A5 (SEQ ID NO:6)), before subcutaneous immunisation with 100 μg proinsulin protein emulsified in IFA to boost the ongoing autoimmune response (A). Lymph nodes (LNs) were harvested 7 days later and LN cell suspensions were cultured with or without proinsulin protein or peptide (C13-32; C19-A3; C22-A5) for 48 hours in vitro. Proliferation of CD4^+ T cells and IFN-γ production were analysed by CFSE dilution at 96 hours (B) and ELISA at 48 hours (C) in response to in vitro stimulation with 50 μg/mL proinsulin protein and 10 μg/mL peptides (C13-32; C19-A3; C22-A5). Serum levels of proinsulin specific IgG1 were measured at day 42 (D). Percentages of proliferating CD3^+CD4^+CD25^highFoxP3^+ Tregs were measured by flow cytometry in LN cultures at day 42 (E). Data are representative of three independent experiments. *p<0.05, **p<0.01, ***p<0.001; Statistical significance was determined by one-way ANOVA or Student's t test. 15 mice per group in B and C; 5 mice per group D-F.
Tolerance to proinsulin was breached in mice by subcutaneous immunisation with 100 μg proinsulin protein emulsified in CFA and treatment with intraperitoneal pertussis toxin immediately and 1 day after immunisation. […] Proliferation and cytokine production were analysed by thymidine incorporation and ELISA and the mean±SEM proliferation in response to 50 μg/mL proinsulin (B) and IFN-γ production in response to 50 μg/mL proinsulin (C) or 10 μg/mL proinsulin peptides, in DLN cultures is shown. Percentage of proliferating CD3^+CD4^+CD25^highFoxP3^+ Tregs was measured by flow cytometry in LN cultures at day 42 (E). Serum levels of proinsulin specific IgG1 were measured at day 42 (F). […]

718-36: fragment of IA-2, comprising residues 718-736 (AYQAEPNTCATAQGEGNIK; listed as Homo sapiens) [Group 718-36]
proportion of Type 1 diabetes patients responding (IFN-γ production) [1]: preferential sequences

855-67: fragment of IA-2, comprising residues 855-867 (YLKNVQTQETRTL; listed as Homo sapiens) [Group 855-67]
proportion of Type 1 diabetes patients responding (IFN-γ production) [1]: preferential sequences

C13-32: fragment of PI, comprising residues C13-C32 (GGGPGAGSLQPLALEGSLQK; listed as Homo sapiens) [Group C13-32]
therapeutic potency of mono-PI in contrast to multi-PI (proinsulin): lower levels of therapeutic potency

C19-A3: fragment of PI, comprising residues C19-A3 (GSLQPLALEGSLQKRGIV; listed as Homo sapiens) [Group C19-A3]
therapeutic potency of mono-PI in contrast to multi-PI (proinsulin): lower levels of therapeutic potency

C22-A5: fragment of PI, comprising residues C22-A5 (QPLALEGSLQKRGIVEQ; listed as Homo sapiens) [Group C22-A5]
therapeutic potency of mono-PI in contrast to multi-PI (proinsulin): lower levels of therapeutic potency
